Results from ChEMBL document CHEMBL1126308, “Alfred Burger Award address. A half century in medicinal chemistry with major emphasis on pain-relieving drugs and their antagonists” (1992).
The source made the active and inactive calls. The rule behind the calls is not given here.

What was measured:
Monkey [1] = test: Physical dependence capacity (PDC) of the compound; no physical dependence capacity; type: functional, organism-based; conditions: Cercopithecidae
Monkey [2] = test: Analgesic activity in monkeys.; type: functional, Cercopithecidae
Mus musculus [3] = species on record: Mus musculus; test: Ratio between the ED50 values in presence and absence of sodium; value ranges from […]; type: functional
Mus musculus [4] = species on record: Mus musculus; test: Compound was evaluated for the hotplate analgesic activity in mouse; type: functional; set-up: unit not given here
Mus musculus [5] = species on record: Mus musculus; test: (§1) Compound was evaluated for the inhibition of [3H]naloxone binding to mouse brain homogenate at 1 nM in the absence of sodium; type: functional
Mus musculus [6] = species on record: Mus musculus; test: Compound was evaluated for the inhibition of [3H]naloxone binding to mouse brain homogenate at 1 nM in the presence of 100 mM sodium; ED50 = […] nM; type: functional
Mus musculus [7] = species on record: Mus musculus; test: Compound was evaluated for the hotplate analgesic activity; type: functional
[8] = target: Mu-type opioid receptor (Mus musculus) (UniProt P42866); test: Compound was evaluated for the inhibition of [3H]naloxone binding to opioid receptor mu mouse brain homogenate at 1 nM in the presence of 100 mM sodium; ED50 = 40-50 nM; type: tissue-based
Mus musculus [9] = species on record: Mus musculus; test: Ratio between the ED50 values in presence and absence of sodium; value ranges from 2-2.5; type: functional
[10] = target: Mu-type opioid receptor (Mus musculus) (UniProt P42866); test: Compound was evaluated for the inhibition of [3H]naloxone binding to opioid receptor mu of mouse brain homogenate at 1 nM in the absence of sodium; type: tissue-based
Monkey [11] = test: Physical dependence capacity (PDC) of the compound; high physical dependence capacity; type: functional, organism-based; conditions: Cercopithecidae
Monkey [12] = test: aAntagonistic potency of the compound; not active; type: functional, organism-based; conditions: Cercopithecidae
Mus musculus [13] = species on record: Mus musculus; test: (§2) Compound was evaluated for the inhibition of [3H]naloxone binding to mouse brain homogenate at 1 nM in the presence of 100 mM sodium; type: functional
Mus musculus [14] = species on record: Mus musculus; test: Ratio between the ED50 values in presence and absence of sodium; type: functional
Mus musculus [15] = species on record: Mus musculus; test: Compound was evaluated for the inhibition of [3H]naloxone binding to mouse brain homogenate at 1 nM in the presence of 100 mM sodium; ED50 = 800-1000 nM; type: functional
Mus musculus [16] = species on record: Mus musculus; test: Ratio between the ED50 values in presence and absence of sodium; value ranges from 4-5; type: functional
Mus musculus [17] = species on record: Mus musculus; test: Compound was evaluated for the hotplate analgesic activity; IA=inactive; type: functional, organism-based
[18] = target: Mu-type opioid receptor (Mus musculus) (UniProt P42866); test: as §1; type: tissue-based
[19] = target: Mu-type opioid receptor (Mus musculus) (UniProt P42866); test: Compound was evaluated for the inhibition of [3H]-naloxone binding to mouse brain homogenate at 1 nM in the presence of 100 mM sodium; type: tissue-based
[20] = target: Mu-type opioid receptor (Mus musculus) (UniProt P42866); test: as §2; type: tissue-based
[21] = target: Mu-type opioid receptor (Mus musculus) (UniProt P42866); test: Compound was evaluated for the inhibition of [3H]naloxone binding to mouse brain homogenate at 1 nM in the absence of sodium; ED50 = 7-10 nM; type: tissue-based
[22] = target: Mu-type opioid receptor (Mus musculus) (UniProt P42866); test: Ratio between the ED50 values in presence and absence of sodium; value ranges from 7-10
Monkey [23] = test: Physical dependence capacity (PDC) of the compound; low physical dependence capacity; type: functional, organism-based; conditions: Cercopithecidae
Monkey [24] = test: Antagonistic potency of the compound; not active; type: functional, organism-based; conditions: Cercopithecidae
Monkey [25] = test: Physical dependence capacity (PDC) of the compound; intermed physical dependence capacity; type: functional, organism-based; conditions: Cercopithecidae
[26] = target: Mu-type opioid receptor (Mus musculus) (UniProt P42866); test: Compound was evaluated for the inhibition of [3H]naloxone binding to opioid receptor mu of mouse brain homogenate at 1 nM in the presence of 100 mM sodium; ED50=600-700 nM; type: tissue-based
Mus musculus [27] = species on record: Mus musculus; test: Ratio between the ED50 values in presence and absence of sodium; value ranges from 1.2-1.5; type: functional
[28] = target: Mu-type opioid receptor (Rattus norvegicus) (UniProt P33535); test: Ratio between the ED50 values in presence and absence of sodium; value ranges from 3.8-5; type: functional; conditions: Mus musculus
Mus musculus [29] = species on record: Mus musculus; test: Compound was evaluated for the inhibition of [3H]naloxone binding to mouse brain homogenate at 1 nM in the presence of 100 mM sodium; ED50 = 1500-2000 nM; type: functional
Monkey [30] = test: Physical dependence capacity (PDC) of the compound; very low physical dependence capacity; type: functional, organism-based; conditions: Cercopithecidae
[31] = Cercopithecidae, in Primates, read-out: ED50

Mu-type opioid receptor (Mus musculus), sequence (P42866 whole entry): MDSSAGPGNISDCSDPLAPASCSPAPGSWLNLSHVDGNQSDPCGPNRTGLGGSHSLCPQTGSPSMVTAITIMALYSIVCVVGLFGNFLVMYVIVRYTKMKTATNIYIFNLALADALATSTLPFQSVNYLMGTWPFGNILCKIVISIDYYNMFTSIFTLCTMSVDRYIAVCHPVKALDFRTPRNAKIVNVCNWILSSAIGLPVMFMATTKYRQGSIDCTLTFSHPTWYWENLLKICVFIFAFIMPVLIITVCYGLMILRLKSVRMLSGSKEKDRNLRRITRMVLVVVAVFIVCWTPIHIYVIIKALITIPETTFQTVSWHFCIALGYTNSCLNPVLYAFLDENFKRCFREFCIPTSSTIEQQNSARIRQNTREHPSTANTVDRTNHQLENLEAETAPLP
Mu-type opioid receptor (Rattus norvegicus), sequence (P33535 whole entry): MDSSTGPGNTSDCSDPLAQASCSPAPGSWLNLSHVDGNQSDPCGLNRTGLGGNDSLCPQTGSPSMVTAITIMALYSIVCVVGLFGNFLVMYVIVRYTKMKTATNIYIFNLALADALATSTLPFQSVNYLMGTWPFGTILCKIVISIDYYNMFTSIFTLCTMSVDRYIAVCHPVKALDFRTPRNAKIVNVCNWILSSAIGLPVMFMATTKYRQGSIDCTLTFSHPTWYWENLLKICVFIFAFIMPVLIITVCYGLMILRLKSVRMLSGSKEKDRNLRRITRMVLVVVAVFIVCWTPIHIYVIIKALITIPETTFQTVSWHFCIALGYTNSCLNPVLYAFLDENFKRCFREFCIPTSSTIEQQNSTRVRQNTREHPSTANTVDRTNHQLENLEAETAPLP

CN1CC[C@]2(C)CC1Cc1ccc(O)cc12 (stereo in doubt; form 3) [listing 1 of 2 here] was tested, and the PDC (Monkey [1]) was “no physical dependence capacity”.
With CC1C2Cc3ccc(O)cc3[C@@H]1CCN2C (stereo in doubt; form 1) the ED50 (Monkey [2]) was 1.1 mg/kg.
In the case of CCCCN1CCC(C(=O)CC)(c2cccc(O)c2)CC1, the Ratio (Mus musculus [3]) is reported as 12, the ED50 (Mus musculus [4]) is reported as 4.6 and the ED50 (Mus musculus [5]) is reported as 50 nM. The ED50 (Mus musculus [6]) was 600 nM.
In the case of CCCCCCCN1CCC(C(=O)CC)(c2cccc(O)c2)CC1, the ED50 (Mus musculus [7]) is reported as 9000 nM, the ED50 [8] is reported as 40 nM and the Ratio (Mus musculus [9]) is reported as 2. The ED50 [10] was 20 nM.
In the case of CC1C2Cc3ccc(O)cc3[C@]1(C)CCN2C (stereo in doubt; form 1), the ED50 (Monkey [2]) is reported as 0.1 mg/kg.
In the case of CN1CC[C@]23c4c5ccc(O)c4O[C@H]2[C@@H](O)C=C[C@H]3[C@H]1C5 [MORPHINE], the ED50 (Monkey [2]; [31]) is reported as 1.2 mg/kg, the PDC (Monkey [11]) is reported as “Active” and the Antagonist potency (Monkey [12]) is reported as “inactive”.
Work on CCCCCCN1CCC(C(=O)CC)(c2cccc(O)c2)CC1 yielded an ED50 (Mus musculus [13]) of 40 nM, an ED50 (Mus musculus [4]) of 7.5 and an ED50 (Mus musculus [5]) of 20 nM. The Ratio (Mus musculus [14]) was 2.
For CC1C2Cc3ccc(O)cc3[C@]1(C)CCN2C (stereo in doubt; form 2), the ED50 (Monkey [2]) was 1.2 mg/kg.
CCCN1CCC(C(=O)CC)(c2cccc(O)c2)CC1 gave an ED50 (Mus musculus [15]) of 800 nM, an ED50 (Mus musculus [4]) of 16 and a Ratio (Mus musculus [16]) of 4. The ED50 (Mus musculus [5]) was 200 nM.
Work on CN1CC[C@]2(C)CC1Cc1ccc(O)cc12 (stereo in doubt; form 1) [listing 1 of 2 here] yielded an ED50 (Monkey [2]) of 22.9 mg/kg.
For CCCCCCCCCN1CCC(C(=O)CC)(c2cccc(O)c2)CC1, the ED50 (Mus musculus [17]) was “inactive”, the ED50 [18] was 700 nM and the ED50 [19] was 700 nM. The Ratio (Mus musculus [14]) was 1.
CCC(=O)C1(c2cccc(O)c2)CCN(C)CC1 [KETOBEMIDONE] showed an ED50 [20] of 70 nM, an ED50 (Mus musculus [4]) of 2.1 and an ED50 [21] of 7 nM. It also gave a Ratio [22] of 7.
In the case of CC[C@]12CCN(C)C(Cc3ccc(O)cc31)C2, the PDC (Monkey [23]) is reported as “low physical dependence capacity”, the PDC (Monkey [1]) is reported as “low physical dependence capacity” and the Antagonist potency (Monkey [24]) is reported as “inactive”.
In the case of COc1ccc2c3c1O[C@H]1[C@@H](O)C=C[C@H]4[C@@H](C2)N(C)CC[C@@]341 [CODEINE], the PDC (Monkey [25]) is reported as “Partially active”, the ED50 (Monkey [2]; [31]) is reported as 7.5 mg/kg and the Antagonist potency (Monkey [24]) is reported as “inactive”.
Work on CN1CC[C@]2(C)CC1Cc1ccc(O)cc12 (stereo in doubt; form 2) yielded an ED50 (Monkey [2]) of 3.2 mg/kg.
For CCCCCCCCCCN1CCC(C(=O)CC)(c2cccc(O)c2)CC1, the ED50 (Mus musculus [17]) was “inactive”, the ED50 [18] was 500 nM and the ED50 [26] was 600 nM. It also gave a Ratio (Mus musculus [27]) of 1.2.
For CCC(=O)C1(c2cccc(O)c2)CCN(CC)CC1, the Ratio [28] was 3.8, the ED50 (Mus musculus [4]) was 67.2 and the ED50 (Mus musculus [5]) was 400 nM. For the same molecule, the ED50 (Mus musculus [29]) was 1500 nM.
For CC1C2Cc3ccc(O)cc3[C@@H]1CCN2C (stereo in doubt; form 2), the ED50 (Monkey [2]) was 4.3 mg/kg.
With CN1CC[C@@H]2CC1Cc1ccc(O)cc12 the ED50 (Monkey [2]; [31]) was 4.5 mg/kg.
CCCCCN1CCC(C(=O)CC)(c2cccc(O)c2)CC1 was tested, and the ED50 (Mus musculus [13]) was 30 nM, the ED50 (Mus musculus [4]) was 0.78 and the ED50 (Mus musculus [5]) was 8 nM. It also gave a Ratio (Mus musculus [14]) of 3.8.
CCCCCCCCN1CCC(C(=O)CC)(c2cccc(O)c2)CC1 showed an ED50 [18] of 200 nM, an ED50 (Mus musculus [7]) of 26500 nM and an ED50 [19] of 200 nM. For the same molecule, the Ratio (Mus musculus [14]) was 1.
In the case of CCC[C@]12CCN(C)C(Cc3ccc(O)cc31)[C@@H]2C, the PDC (Monkey [1]) is reported as “high physical dependence capacity”, the Antagonist potency (Monkey [24]) is reported as “inactive” and the PDC (Monkey [11]) is reported as “high physical dependence capacity”.
With CN1CC[C@]2(C)CC1Cc1ccc(O)cc12 (stereo in doubt; form 3) [listing 2 of 2 here] the ED50 (Monkey [2]) was 1.8 mg/kg.
For C[C@H]1C2Cc3ccc(O)cc3[C@]1(C)CCN2C, the PDC (Monkey [1]) was “no physical dependence capacity”, the ED50 (Monkey [2]; Cercopithecidae) was “inactive” and the ED50 (Monkey [2]; [31]) was 0.6 mg/kg. The Antagonist potency (Monkey [24]) was “inactive”.
For CN1CC[C@]2(C)CC1Cc1ccc(O)cc12 (stereo in doubt; form 1) [listing 2 of 2 here], the Antagonist potency (Monkey [24]) was “inactive” and the PDC (Monkey [30]) was “no physical dependence capacity”.
CC[C@H]1C2Cc3ccc(O)cc3[C@]1(CC)CCN2C was tested, and the PDC (Monkey [1]) was “intermed physical dependence capacity”, the PDC (Monkey [25]) was “intermed physical dependence capacity” and the Antagonist potency (Monkey [24]) was “inactive”.
